Experiments:
DMS-273 = test: Tested for cytotoxicity against DMS 273 (small-cell lung cancer) cell line.; type: functional, Homo sapiens
NCI-H522 = test: Tested for cytotoxicity against NCI-H522 (non-small-cell lung cancer) cell line.; type: functional, Homo sapiens
COLO 205 = test: Tested for cytotoxicity against COLO 205 (colon cancer) cell line.; type: functional, Homo sapiens
Tubulin = Tubulin (Bos taurus, UniProt Q6B856+Q862F3); test: In vitro inhibition of bovine electrophoretically homogeneous tubulin polymerization.; type: functional
HL-60 = test: Tested for cytotoxicity against human cancer cell lines HL-60(TB) (leukemia) cell line.; type: functional
M14 = test: Tested for cytotoxicity against M14 melanoma; type: functional, Homo sapiens
OVCAR-3 = test: Tested for cytotoxicity against OVCAR-3 (ovarian cancer) cell line.; type: functional, Homo sapiens
SF-295 = test: In vitro cytotoxicity against SF-295 (CNS cancer) cell line.; type: functional, Homo sapiens
CAKI-1 = test: Tested for cytotoxicity against CAKI-1 renal cancer; type: functional, Homo sapiens

Tubulin, sequence (Q6B856 whole entry): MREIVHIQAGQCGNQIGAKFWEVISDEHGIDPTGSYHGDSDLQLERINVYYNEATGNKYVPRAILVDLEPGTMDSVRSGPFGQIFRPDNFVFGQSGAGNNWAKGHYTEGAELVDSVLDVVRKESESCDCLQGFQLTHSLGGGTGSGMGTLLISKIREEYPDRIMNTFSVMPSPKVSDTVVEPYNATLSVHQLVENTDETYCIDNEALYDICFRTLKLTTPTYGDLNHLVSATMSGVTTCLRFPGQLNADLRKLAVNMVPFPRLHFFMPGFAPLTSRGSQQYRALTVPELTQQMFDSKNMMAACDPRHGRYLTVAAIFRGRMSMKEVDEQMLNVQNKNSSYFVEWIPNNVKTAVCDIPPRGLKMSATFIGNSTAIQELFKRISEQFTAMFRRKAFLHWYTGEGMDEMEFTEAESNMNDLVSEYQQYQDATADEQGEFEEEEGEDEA
Tubulin, sequence (Q862F3 whole entry): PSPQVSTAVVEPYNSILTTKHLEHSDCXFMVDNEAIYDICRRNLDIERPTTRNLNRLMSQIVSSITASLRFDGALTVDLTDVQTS

Row | Structure (SMILES) | GI50 (DMS-273) [µM] | GI50 (NCI-H522) [µM] | GI50 (COLO 205) [µM] | IC50 (Tubulin) [µM] | GI50 (HL-60) [µM] | GI50 (M14) [µM] | GI50 (OVCAR-3) [µM] | GI50 (SF-295) [µM] | GI50 (DMS-273; Homo sapiens, DMS-273) [µM] | GI50 (NCI-H522; Homo sapiens, NCI-H522) [µM] | GI50 (COLO 205; Homo sapiens, COLO 205) [µM] | GI50 (HL-60; Homo sapiens, HL-60) [µM] | GI50 (CAKI-1; Homo sapiens, CAKI-1) [µM] | GI50 (M14; Homo sapiens, M14) [µM] | GI50 (OVCAR-3; Homo sapiens, OVCAR-3) [µM] | GI50 (SF-295; Homo sapiens, SF-295) [µM] | GI50 (CAKI-1) [µM]
1 | CCc1ccc(NCc2cc(OC)c(OC)c(OC)c2)cc1 | 0.818 | 0.371 | 0.352 | 7.2 | 0.245 | 0.437 | 0.405 | 0.339 | – | – | – | – | – | – | – | – | –
2 | COc1cc(/C=N/c2ccc(C(C)C)cc2)cc(OC)c1OC | – | – | – | > 40 | – | – | – | – | 52.5 | > 100 | > 100 | > 100 | > 100 | > 100 | > 100 | > 100 | –
3 | COc1cc(CNc2ccc(SC)cc2)cc(OC)c1OC [listing 1 of 2 here] | – | – | – | > 40 | – | – | – | 7.28 | 3.09 | 4.68 | 3.88 | 3.7 | 32 | 5.26 | 5.93 | – | –
4 | COc1cc(CNc2ccc(SC)cc2)cc(OC)c1OC [listing 2 of 2 here] | 4.91 | 2.95 | 3.6 | 16 | 3.29 | 4.84 | 4.85 | 3.41 | – | – | – | – | – | – | – | – | 16.3

— ChEMBL document CHEMBL1126805, “Synthesis and evaluation of a series of benzylaniline hydrochlorides as potential cytotoxic and antimitotic agents acting by inhibition of tubulin polymerization” (J Med Chem, 1993)
